Assay results as given in patent US10421718B2, “EBNA1 inhibitors and their method of use” (priority 2013, dated 2019).
Counter-ions that a name gives are not always drawn.

Target: T1, His-EBNA1 (DNA binding domain of EBNA1, amino acids 459-607) (Epstein-Barr virus, UniProt P03211)
T1 construct: made in house; host or cells: E. coli
Assay: Inhibition of 5′-biotin-oPL4624 binding to His-EBNA1 using Alpha Screen technology
Details: Alpha Screen Activity (IC50, inhibition of 5′-biotin-oPL4624 binding to His-EBNA1), 15 nM His-EBNA1, 0.2 nM bt-oPL4624, 2 hr room temperature
How it was run: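 His-tagged EBNA1 DNA-binding domain (aa 459-607, E. coli-expressed) at 15 nM with 0.2 nM biotinylated self-complementary oligo, streptavidin donor and nickel acceptor beads, in 25 mM Tris pH 7.2, 160 mM NaCl, 1 mM MgCl2. Compound 3.2 nM-100 μM final; AlphaScreen read after 2 h at room temperature, one-site dose-response fit.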

T1 sequence (P03211 459-607): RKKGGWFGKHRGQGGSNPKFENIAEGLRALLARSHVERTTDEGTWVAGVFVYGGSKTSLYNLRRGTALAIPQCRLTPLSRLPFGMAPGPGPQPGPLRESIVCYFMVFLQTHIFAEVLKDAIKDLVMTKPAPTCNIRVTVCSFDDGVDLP

| Structure (SMILES) | IC50 [µM] |
| --- | --- |
| CC(=O)Nc1cccc(C#Cc2cccc(C(=O)O)c2-c2ccc3cc[nH]c3c2)c1 [Entry 230, 3-((3-Acetamidophenyl)ethynyl)-2-(1H-indol-6-yl)benzoic acid] | < 1 |
| O=C(Nc1cccc(C#Cc2cccc(C(=O)O)c2-c2ccc3cc[nH]c3c2)c1)c1cccnc1 [Entry 231, 2-(1H-indol-6-yl)-3-((3-(nicotinamido)phenyl)ethynyl)benzoic acid] | 1 to 10 |
| O=C(O)c1cccc(C#Cc2cccc(NS(=O)(=O)c3ccc(F)c(Cl)c3)c2)c1-c1ccc2cc[nH]c2c1 [Entry 232, 3-((3-(3-chloro-4-fluorophenylsulfonamido)phenyl)ethynyl)-2-(1H-indol-6-yl)benzoic acid] | < 1 |
| Nc1cccc(C#Cc2cccc(C(=O)O)c2-c2ccc3cc[nH]c3c2)c1 [Entry 233, 3-((3-aminophenyl)ethynyl)-2-(1H-indol-6-yl)benzoic acid] | < 1 |
| CS(=O)(=O)Nc1cccc(C#Cc2cccc(C(=O)O)c2-c2ccc3cc[nH]c3c2)c1 [Entry 234, 2-(1H-indol-6-yl)-3-((3-(methylsulfonamido)phenyl)ethynyl)benzoic acid] | 1 to 10 |
| O=C(O)c1cccc(C#Cc2cccc(NS(=O)(=O)c3cccs3)c2)c1-c1ccc2cc[nH]c2c1 [Entry 235, 2-(1H-indol-6-yl)-3-((3-(thiophene-2-sulfonamido)phenyl)ethynyl)benzoic acid] | < 1 |
| CC(=O)Nc1cc(F)cc(C#Cc2cccc(C(=O)O)c2-c2ccc3cc[nH]c3c2)c1 [Entry 236, 3-((3-acetamido-5-fluorophenyl)ethynyl)-2-(1H-indol-6-yl)benzoic acid] | < 1 |
| O=C(O)c1cccc(C#Cc2ccccc2)c1-c1ccc2c(c1)NCC2 [Entry 237, 2-(indolin-6-yl)-3-(phenylethynyl)benzoic acid] | 10 to 100 |
| O=C(O)c1cccc(C#Cc2cccc(O)c2)c1-c1ccc2c(c1)NCC2 [Entry 238, 3-((3-hydroxyphenyl)ethynyl)-2-(indolin-6-yl)benzoic acid] | 1 to 10 |
| Nc1cccc(C#Cc2cccc(C(=O)O)c2-c2ccc3cc[nH]c3c2)n1 [Entry 239, 3-((6-aminopyridin-2-yl)ethynyl)-2-(1H-indol-6-yl)benzoic acid] | 1 to 10 |
| Nc1cc(C#Cc2cccc(C(=O)O)c2-c2ccc3cc[nH]c3c2)ccn1 [Entry 240, 3-((2-aminopyridin-4-yl)ethynyl)-2-(1H-indol-6-yl)benzoic acid] | 1 to 10 |
| COc1cncc(-c2c(C#Cc3cccc(O)c3)cccc2C(=O)O)c1 [Entry 241, 3-((3-hydroxyphenyl)ethynyl)-2-(5-methoxypyridin-3-yl)benzoic acid] | 10 to 100 |
| O=C(O)c1cccc(C#Cc2cccc(O)c2)c1-c1ccc2c(c1)OCO2 [Entry 242, 2-(benzo[d][1,3]dioxol-5-yl)-3-((3-hydroxyphenyl)ethynyl)benzoic acid] | 10 to 100 |
| O=C(O)c1cccc(C#Cc2cccc(O)c2)c1-c1cncnc1 [Entry 243, 3-((3-hydroxyphenyl)ethynyl)-2-(pyrimidin-5-yl)benzoic acid] | 10 to 100 |
| COc1cc(-c2c(C#Cc3cccc(O)c3)cccc2C(=O)O)ccc1N [Entry 244, 4′-Amino-6-((3-hydroxyphenyl)ethynyl)-5′-methoxybiphenyl-2-carboxylic acid] | 10 to 100 |
| O=C(O)c1cccc(C#CCCO)c1-c1ccc2cc[nH]c2c1 [Entry 245, 3-(4-hydroxybut-1-ynyl)-2-(1H-indol-6-yl)benzoic acid] | < 1 |
| CC(C)(N)C#Cc1cccc(C(=O)O)c1-c1ccc2cc[nH]c2c1 [Entry 246, 3-(3-amino-3-methylbut-1-ynyl)-2-(1H-indol-6-yl)benzoic acid] | 1 to 10 |
| O=C(O)c1cccc(C#CC(O)c2ccccc2)c1-c1ccc2cc[nH]c2c1 (stereo not shown) [Entry 247, 3-(3-hydroxy-3-phenylprop-1-ynyl)-2-(1H-indol-6-yl)benzoic acid] | < 1 |
| CC(C)(O)C#Cc1cccc(C(=O)O)c1-c1ccc2cc[nH]c2c1 [Entry 248, 3-(3-hydroxy-3-methylbut-1-ynyl)-2-(1H-indol-6-yl)benzoic acid] | < 1 |
| O=C(O)c1cccc(C#Cc2cccc(CO)c2)c1-c1ccc2cc[nH]c2c1 [Entry 249, 3-((3-(hydroxymethyl)phenyl)ethynyl)-2-(1H-indol-6-yl)benzoic acid] | 1 to 10 |
| O=C(O)c1cc2ccc(-c3c(C#Cc4ccccc4)cccc3C(=O)O)cc2[nH]1 [Entry 250, 6-(2-carboxy-6-(phenylethynyl)phenyl)-1H-indole-2-carboxylic acid] | 1 to 10 |
| CCOC(=O)c1cc2ccc(-c3c(C#Cc4ccccc4)cccc3C(=O)O)cc2[nH]1 [Entry 251, 2-(2-(ethoxycarbonyl)-1H-indol-6-yl)-3-(phenylethynyl)benzoic acid] | 1 to 10 |

| Structure (SMILES) | IC50 [µM] |
| --- | --- |
| COc1cc(C#Cc2cccc(C(=O)O)c2-c2ccc3cc[nH]c3c2)cc(C(N)=O)c1 [Entry 252, 3-((3-carbamoyl-5-methoxyphenyl)ethynyl)-2-(1H-indol-6-yl)benzoic acid] | 1 to 10 |
| O=C(O)c1cccc(C#Cc2ccccc2)c1-c1ccc2[nH]ccc2c1 [Entry 253, 2-(1H-indol-5-yl)-3-(phenylethynyl)benzoic acid] | 1 to 10 |
| O=C(O)c1cc2cc(-c3c(C#Cc4cccc(O)c4)cccc3C(=O)O)ccc2[nH]1 [Entry 254, 5-(2-carboxy-6-((3-hydroxyphenyl)ethynyl)phenyl)-1H-indole-2-carboxylic acid] | 10 to 100 |
| COc1ccc(C#Cc2cccc(C(=O)O)c2-c2ccc3[nH]c(C(=O)O)cc3c2)cc1 [Entry 255, 5-(2-carboxy-6-((4-methoxyphenyl)ethynyl)phenyl)-1H-indole-2-carboxylic acid] | 10 to 100 |
| O=C(O)c1cccc(C#Cc2ccc(F)c(OC3CCOCC3)c2)c1-c1ccc2cc[nH]c2c1 [Entry 256, 3-((4-fluoro-3-(tetrahydro-2H-pyran-4-yloxy)phenyl)ethynyl)-2-(1H-indol-6-yl)benzoic acid] | 1 to 10 |
| CC(=O)Nc1cccc(-c2c(C#Cc3ccccc3)cccc2C(=O)O)c1 [Entry 257, 5′-acetamido-6-(phenylethynyl)biphenyl-2-carboxylic acid] | 10 to 100 |
| Nc1ccc2c(c1)ncn2CC#Cc1cccc(C(=O)O)c1-c1ccccc1 [Entry 258, 3-[3-(5-amino-1H-1,3-benzodiazol-1-yl)prop-1-yn-1-yl]-2-phenylbenzoic acid trifluoroacetate salt] | 1 to 10 |
| O=C(O)c1cccc(C#Cc2ccncc2)c1-c1ccc2cc[nH]c2c1 [Entry 259, 2-(1H-indol-6-yl)-3-[2-(pyridin-4-yl)ethynyl]benzoic acid; trifluoroacetate salt] | 1 to 10 |
| Cc1ccc(-c2c(C#Cc3ccncc3)cccc2C(=O)O)cc1 [Entry 260, 2-(4-methylphenyl)-3-[2-(pyridin-4-yl)ethynyl]benzoic acid; trifluoroacetate salt] | 10 to 100 |
| Cc1ccc(-c2c(C#Cc3cccc(O)c3)cccc2C(=O)O)cc1 [Entry 261, 3-[2-(3-hydroxyphenyl)ethynyl]-2-(4-methylphenyl)benzoic acid] | 10 to 100 |
| O=C(O)c1cccc(C#CCNc2ccc3[nH]cnc3c2)c1-c1ccccc1 [Entry 262, 3-{3-[(1H-1,3-benzodiazol-6-yl)amino]prop-1-yn-1-yl}-2-phenylbenzoic acid; trifluoroacetate salt] | 1 to 10 |
| Cn1ccc2cc(-c3c(C#Cc4cccc(O)c4)cccc3C(=O)O)ccc21 [Entry 263, 3-[2-(3-hydroxyphenyl)ethynyl]-2-(1-methyl-1H-indol-5-yl)benzoic acid] | 1 to 10 |
| CN1CCOc2cc(-c3c(C#Cc4cccc(O)c4)cccc3C(=O)O)ccc21 [Entry 264, 3-[2-(3-hydroxyphenyl)ethynyl]-2-(4-methyl-3,4-dihydro-2H-1,4-benzoxazin-7-yl)benzoic acid; trifluoroacetate salt] | 1 to 10 |
| CS(=O)(=O)Nc1cccc(-c2c(C#Cc3cccc(O)c3)cccc2C(=O)O)c1 [Entry 265, 3-[2-(3-hydroxyphenyl)ethynyl]-2-(3-methanesulfonamidophenyl)benzoic acid] | 10 to 100 |
| O=C(O)c1cccc(C#Cc2cccc(O)c2)c1-c1ccc2cc[nH]c2c1 [Entry 266, 3-[2-(3-hydroxyphenyl)ethynyl]-2-(1H-indol-6-yl)benzoic acid] | < 1 |
| NC(=O)c1cccc(-c2c(C#Cc3cccc(O)c3)cccc2C(=O)O)c1 [Entry 267, 2-(3-carbamoylphenyl)-3-[2-(3-hydroxyphenyl)ethynyl]benzoic acid] | 10 to 100 |
| O=C(O)c1cccc(C#Cc2cccc(O)c2)c1-c1cn(S(=O)(=O)c2ccccc2)c2ccccc12 [Entry 268, 2-[1-(benzenesulfonyl)-1H-indol-3-yl]-3-[2-(3-hydroxyphenyl)ethynyl]benzoic acid] | 10 to 100 |
| O=C(O)c1cccc(C#Cc2cccc(O)c2)c1-c1cccc(O)c1 [Entry 269, 2-(3-hydroxyphenyl)-3-[2-(3-hydroxyphenyl)ethynyl]benzoic acid] | 10 to 100 |
| O=C(O)c1cccc(C#Cc2ccncc2)c1-c1ccc2[nH]ccc2c1 [Entry 270, 2-(1H-indol-5-yl)-3-[2-(pyridin-4-yl)ethynyl]benzoic acid; trifluoroacetate salt] | 10 to 100 |
| O=C(O)c1cccc(C#Cc2ccncc2)c1-c1cc(O)cc(Cl)c1 [Entry 271, 2-(3-chloro-5-hydroxyphenyl)-3-[2-(pyridin-4-yl)ethynyl]benzoic acid; trifluoroacetate salt] | 1 to 10 |
| O=C(O)c1cccc(C#Cc2ccncc2)c1-c1cc(O)cc(F)c1 [Entry 272, 2-(3-fluoro-5-hydroxyphenyl)-3-[2-(pyridin-4-yl)ethynyl]benzoic acid; trifluoroacetate salt] | 10 to 100 |
